The values that follow come from PubChem BioAssay (NCI).

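Values below derive from 48-hour exposures of cells grown in 96-well plates, with endpoints linearly interpolated between the two concentrations bracketing the appropriate inhibition level. The concentration for full growth arrest is given as TGI.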 Some results are limits rather than exact numbers.

What all share (experiment): growth of human tumour cells (NCI), 48 h
Assay [1] relates to HOP-92 NSCLC.
The test system of assay [2] is 786-0 renal.
Assay [3] deals with IGROV1 ovarian.
In assay [4] the test system is HS 578T breast.
Assay [5] relates to SF-295 CNS.
For assay [6], the system named is MDA-MB-231 breast.
Assay [7] concerns K-562 leukemia.
Assay [8] deals with NCI-H522 lung.
Assay [9] relates to SNB-75 CNS.
Assay [10] deals with MOLT-4 leukemia.
Assay [11] concerns T-47D breast.

For `COC(=O)C1(Cc2ccccc2)Cc2ccc3c(c2C1=O)CCC3` (centres undefined), the TGI in assay [1] was more than 73 µM; in assay [2], more than 100 µM; in [3], more than 100 µM; in [4], more than 84.3 µM; in assay [5] it was more than 100 µM; in assay [6], more than 100 µM. Moreover, the TGI was more than 100 µM in assay [7]; 75.5 µM in assay [8]; more than 100 µM in [9]; 69.5 µM in assay [10]; more than 100 µM in assay [11].

`O=c1oc2ccc3ccccc3c2cc1-c1nc2ccccc2o1`: the TGI in assay [1] is 39.3 µM; in [2] it was 42.2 µM; in [3] it was 30 µM; in assay [4], more than 68.8 µM; in assay [5], more than 59.3 µM; in [6], 35.6 µM. The TGI was more than 100 µM in [7]; 59.4 µM in assay [8]; 40.7 µM in [9]; more than 79 µM in assay [10]; 39.7 µM in assay [11].

As for `COc1ccc2[nH]c3c(c2c1)COc1ccccc1C3=O`, the TGI in assay [1], in assay [2], in assay [3], in assay [4], in assay [5] and in assay [6] was more than 100 µM in each case. Moreover, the TGI in [7], in assay [8], in assay [9], in [10] and in [11] was more than 100 µM in each case.

With `O=C(Cc1ccc(Cl)c(Cl)c1)N(CCc1ccc(Cl)c(Cl)c1)CCN1CCCC1`, the TGI in assay [1] is 4.74 µM; in assay [2] it was 3 µM; in assay [3] it was 3.27 µM; in [4], 11.2 µM; in assay [5] it was 3.84 µM; in assay [6] it was 3.26 µM. The TGI was 3.66 µM in [7]; 3.3 µM in assay [8]; 4.31 µM in [9]; 2.98 µM in assay [10]; 16.1 µM in assay [11].

Turning to `CCOC(=O)[C@@]12CCC(C1=O)[C@](C)(O)C[C@@H]2c1ccccc1`, the TGI in assay [1] was more than 100 µM; in assay [2] it was 68.8 µM; in assay [3] it was more than 100 µM; in assay [4] it was 61.7 µM; in [5] it was more than 100 µM; in [6], more than 100 µM. Further, the TGI is more than 100 µM in [7]; 52.1 µM in assay [8]; more than 100 µM in assay [9]; more than 100 µM in assay [10]; more than 100 µM in assay [11].

With `N#CC1=C(N)OC(c2ccc([N+](=O)[O-])cc2)C1(C#N)C#N` (centres undefined), the TGI in assay [1] is 21.9 µM; in [2], 25 µM; in assay [3], 31.1 µM; in assay [4], 64.9 µM; in [5], more than 71.3 µM; in [6] it was 30.4 µM. Moreover, the TGI in assay [7] is more than 100 µM; in assay [8], 17.8 µM; in assay [9] it was 44.6 µM; in [10], 63.3 µM; in assay [11], 43.2 µM.

As for `CN(C)c1nc(NN)c2c(-c3ccccc3)c(-c3ccccc3)oc2n1`, the TGI in assay [1], in assay [2], in [3], in assay [4], in [5] and in assay [6] was more than 100 µM in each case. In addition, the TGI in [7], in assay [8], in assay [9], in assay [10] and in assay [11] was more than 100 µM in each case.

Regarding `CCOC(=O)CCC(NC(=O)c1ccc(OCc2nc3ccccc3n3cccc23)cc1)C(=O)OCC` (centres undefined), the TGI in [1], in assay [2], in [3], in assay [4], in assay [5] and in assay [6] was more than 100 µM in each case. Moreover, the TGI in [7] is more than 100 µM; in [8], 69.3 µM; in [9], more than 100 µM; in assay [10] it was more than 100 µM; in [11] it was more than 100 µM.

Consider `OC1CN2CCS[C@H]2C(O)C1O` (some centres undefined), for which the TGI in [1], in assay [2], in assay [3], in assay [4], in [5] and in assay [6] was more than 100 µM each time. Further, the TGI in [7], in assay [8], in assay [9], in [10] and in [11] was more than 100 µM in each case.

Turning to `CN(C)c1ccc(/C=C(\NC(=O)c2ccccc2)C2NC(Cc3c[nH]c4ccccc34)C(=O)O2)cc1` (centres undefined), the TGI in assay [1] was more than 69.3 µM; in assay [2] it was more than 100 µM; in assay [3] it was more than 100 µM; in assay [4], more than 54.9 µM; in assay [5], more than 100 µM; in [6] it was more than 100 µM. In addition, the TGI in assay [7] was more than 100 µM; in assay [8] it was 24.4 µM; in assay [9], more than 100 µM; in assay [10] it was more than 100 µM; in assay [11] it was more than 100 µM.

Consider `CCN(CC)CCCNc1nc2ccccc2c2[nH]c3ccc(OC)cc3c12`, for which the TGI in assay [1] was 9.53 µM; in [2] it was 2.41 µM; in assay [3], 3.72 µM; in assay [4] it was 3.81 µM; in [5], 2.39 µM; in assay [6], 3.29 µM. Moreover, the TGI was 3.44 µM in [7]; 2.88 µM in [8]; 3.35 µM in assay [9]; 1.69 µM in [10]; more than 10 µM in assay [11].

`COc1ccccc1Cn1nc(OC)c2cc([N+](=O)[O-])ccc21`: the TGI is 33.8 µM in [1]; more than 84.7 µM in assay [2]; more than 100 µM in assay [3]; more than 84.7 µM in assay [4]; 20 µM in [5]; more than 67.7 µM in assay [6]. The TGI is more than 100 µM in assay [7]; more than 81.3 µM in [8]; 18.7 µM in assay [9]; more than 100 µM in [10]; more than 100 µM in assay [11].

Regarding `CC1(C)CN=C(Nc2cccc(C(F)(F)F)c2)S1`, the TGI in [1] was more than 100 µM; in assay [2], more than 100 µM; in [3], more than 100 µM; in assay [4], more than 100 µM; in assay [5], more than 100 µM; in assay [6], 16.3 µM. Moreover, the TGI in [7], in assay [8], in assay [9], in assay [10] and in assay [11] was more than 100 µM each time.

Turning to `O=C1C=C(NCCc2cc(Br)c(O)c(Br)c2)C(=O)c2ncccc21`, the TGI was 25.6 µM in [1]; 13.6 µM in assay [2]; 6.31 µM in assay [3]; 8.77 µM in [4]; 2.79 µM in [5]; 20.3 µM in assay [6]. For the same molecule, the TGI in assay [7] was 10 µM; in [8] it was 6.1 µM; in [9], 3.13 µM; in [10], 21.9 µM; in [11], 43.4 µM.

With `N#CC(c1cc2c(cc1Br)OCO2)N1CCOCC1` (centres undefined), the TGI is more than 100 µM in assay [1]; more than 100 µM in assay [2]; more than 100 µM in [3]; 83.8 µM in assay [4]; more than 100 µM in assay [5]; more than 100 µM in [6]. Also, the TGI in assay [7] is 57.1 µM; in assay [8], more than 100 µM; in [9], 99.6 µM; in assay [10] it was more than 100 µM; in [11], more than 100 µM.

In the case of `Cc1cc(C)c2c(=O)n(CN3CCC(O)(c4ccccc4)CC3)sc2n1`, the TGI was more than 100 µM in [1]; 30.8 µM in [2]; more than 100 µM in assay [3]; more than 100 µM in [4]; more than 100 µM in [5]; more than 100 µM in assay [6]. The TGI in [7] was more than 100 µM; in assay [8] it was 24.2 µM; in assay [9], 50.8 µM; in [10], 76.3 µM; in [11], more than 100 µM.

Turning to `COC(=O)CCn1cnc2c(SC)ncnc21`, the TGI in [1], in assay [2], in assay [3], in [4], in assay [5] and in assay [6] was more than 100 µM throughout. Moreover, the TGI in assay [7], in assay [8], in assay [9], in [10] and in assay [11] was more than 100 µM throughout.

As to `CC(C)NC(=O)OCc1c(COC(=O)NC(C)C)n(C)c2c1ccc1ccccc12`, the TGI in [1] turned out to be 2.6 µM; in assay [2], 2.5 µM; in assay [3], 3.23 µM; in [4] it was 7.12 µM; in assay [5], 17.2 µM; in assay [6], 3.6 µM. Moreover, the TGI in [7] is more than 20 µM; in assay [8] it was 0.298 µM; in assay [9], 7.11 µM; in [10] it was more than 25.4 µM; in [11] it was 1.48 µM.

For the molecule `COc1cc2c(c3c1c(=O)c1ccccc1n3C)C=CC1(CCCCC1)O2`, the TGI in assay [1] was 9.77 µM; in assay [2], more than 10 µM; in assay [3], more than 10 µM; in [4] it was 7.49 µM; in [5] it was 4.7 µM; in [6], more than 10 µM. Besides, the TGI in assay [7] was 6.36 µM; in assay [8], more than 10 µM; in assay [9] it was 8.46 µM; in [10] it was more than 10 µM; in [11], more than 10 µM.

Regarding `CN(C)c1ccc(/C=C(\NC(=O)c2ccccc2)C(=O)NC(CCC(=O)O)C(=O)O)cc1` (centres undefined), the TGI in [1], in assay [2], in assay [3], in assay [4], in [5] and in [6] was more than 100 µM each time. Further, the TGI in [7], in assay [8], in [9], in [10] and in assay [11] was more than 100 µM in each case.

Regarding `O=[N+]([O-])c1cc(Cl)cc2cc(Cl)cnc12`, the TGI in assay [1] was more than 100 µM; in assay [2], more than 100 µM; in [3], 66.8 µM; in assay [4] it was more than 100 µM; in [5], more than 100 µM; in [6] it was more than 100 µM. The TGI in assay [7] is more than 100 µM; in assay [8] it was more than 100 µM; in assay [9], 98 µM; in assay [10] it was more than 100 µM; in assay [11], 97.2 µM.

For `COc1cc([C@@H]2c3[nH]c4ccccc4c3C(Nc3ccc([N+](=O)[O-])cc3)[C@H]3COC(=O)N23)cc(OC)c1O` (some centres undefined), the TGI in [1] was found to be 1.96 µM; in assay [2] it was 0.665 µM; in [3] it was 2.86 µM; in assay [4] it was 2.79 µM; in assay [5], 1.02 µM; in [6], 0.648 µM. Besides, the TGI in [7] was 6.97 µM; in assay [8], 1.97 µM; in assay [9] it was 1.66 µM; in assay [10], 0.289 µM; in assay [11], more than 23.2 µM.

For the molecule `O=C(c1cccnc1)N1N=C(c2ccc(Cl)cc2)CC1(O)c1cc(F)c(Cl)cc1Cl` (centres undefined), the TGI was 59.8 µM in assay [1]; 53.8 µM in assay [2]; 82.1 µM in assay [3]; more than 100 µM in assay [4]; 56.1 µM in assay [5]; 38.9 µM in assay [6]. Besides, the TGI is more than 100 µM in [7]; 92.1 µM in [8]; 37.3 µM in assay [9]; more than 100 µM in [10]; 20.7 µM in assay [11].

In the case of `CC(=O)N[C@H]1CCCC[C@@H]1OC(C)=O`, the TGI in [1], in assay [2], in assay [3], in assay [4], in assay [5] and in assay [6] was more than 100 µM throughout. For the same molecule, the TGI in assay [7], in assay [8], in assay [9], in assay [10] and in assay [11] was more than 100 µM in each case.
